Ends that are not written are not given here.
Key:
[1] = system: keratinocytes; test: IVL peptide protection against keratinocyte cell (detergent) lysis; type: cell-based; details: keratinocytes treated with IVL late repeat peptide
[2] = system: keratinocytes; test: Keratinocyte barrier function after IVL peptide treatment; type: cell-based; details: keratinocytes treated with IVL peptide
[3] = molecular target: T1, vitamin D receptor (Mus musculus, UniProt P48281); test: Nuclear localization of vitamin D receptor in MC903-treated keratinocytes; type: cell-based; parameters: endogenous in cells; host or cells: Ivl-/- keratinocytes; details: MC903 treated lvl-/- keratinocytes
T1 sequence (P48281 1-422): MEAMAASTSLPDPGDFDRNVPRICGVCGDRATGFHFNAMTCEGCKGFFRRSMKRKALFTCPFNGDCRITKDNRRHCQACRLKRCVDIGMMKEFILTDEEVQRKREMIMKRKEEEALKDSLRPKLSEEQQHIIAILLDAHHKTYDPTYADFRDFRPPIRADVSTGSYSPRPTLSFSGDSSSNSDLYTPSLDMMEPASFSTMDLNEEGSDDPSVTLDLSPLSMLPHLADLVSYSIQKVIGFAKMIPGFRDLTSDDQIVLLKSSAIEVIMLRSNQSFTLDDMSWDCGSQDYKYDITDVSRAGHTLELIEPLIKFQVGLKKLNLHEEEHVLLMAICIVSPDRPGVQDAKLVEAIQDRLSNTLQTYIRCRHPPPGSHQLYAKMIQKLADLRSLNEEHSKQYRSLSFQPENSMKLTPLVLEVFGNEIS

[4] = molecular target: T1, vitamin D receptor; test: MC903 vitamin D receptor-mediated skin inflammation in WT and Involucrin (lvl) -/- mice; type: in vivo; parameters: from tissue; host or cells: skin of WT and Ivl-/- mice (in vivo)
Method: Here, vitamin D receptor-mediated skin inflammation was induced in Involucrin (lvl) -/- mice and vitamin D receptor function in the epidermis was evaluated (see e.g., FIG. 14). It was shown that vitamin D receptor-induced inflammation is reduced in lvl^-/- skin (see e.g., FIG. 15). […] Basophils are a major source of IL-4 and IL-6 expression that drives skin inflammation (see e.g., FIG. 21).

## ELPEQQEGQL (ELPEQQEGQL-NH2) [IVL peptide]
[1]
  protection against keratinocyte cell lysis: protects against keratinocyte cell lysis
[1]; listed as IVL late repeat peptide
  protection against keratinocyte cell lysis: protects the keratinocyte from detergent lysis
[1]; listed as “late” repeat IVL peptide
  protection against keratinocyte cell lysis: resistant to detergent lysis
[2]
  keratinocyte barrier function: improves keratinocyte barrier function

## C=C1/C(=C\C=C2/CCC[C@]3(C)[C@@H]([C@H](C)/C=C/[C@@H](O)C4CC4)CC[C@@H]23)C[C@@H](O)C[C@@H]1O [MC903]
[3]
  nuclear localization of vitamin D receptor: loss of nuclear localization of vitamin D receptor
[4]; MC903-treated lvl-/- skin
  CD4+ T cells: significantly decreased
  cell type populations (scRNA-seq): Decreased basophils, macrophages, CD4^+ T cells, and basal II keratinocytes, and increased suprabasal keratinocytes
[4]; MC903 treatment, lvl-/- skin compared to WT
  vitamin D receptor induced inflammation: significantly reduced as early as day 6

From patent US12440537B1, “Compositions and methods for treating skin diseases, disorders, or conditions” (Washington University, priority 2020, dated 2025)
